Data: patent US20070077283A1, “METHOD OF ENHANCING TRANSMUCOSAL DELIVERY OF THERAPEUTIC COMPOUNDS” (Nastech Pharmaceutical Company Inc., priority 2005, published 2007)

Assays:
[1] = tested on: human-derived tracheal/bronchial epithelial cells (EpiAirway Tissue Model); test: Transepithelial electrical resistance (TER) of an epithelial cell monolayer; assay type: cell-based; details: for activity at 1000 µM: Homo sapiens, Epithelial cell, 1 h, read-out: Mean % of Original TER Value
Procedure: Inserts are feed for each day of recovery. TER measurements were accomplished using the Endohm-12 Tissue Resistance Measurement Chamber connected to the EVOM Epithelial Voltohmmeter (World Precision Instruments, Sarasota, Fla.) with the electrode leads. The electrodes and a tissue culture blank insert were equilibrated for at least 20 minutes in MatTek medium with the power off prior to checking calibration. The background resistance was measured with 1.5 ml media in the Endohm tissue chamber and 300 μl media in the blank insert. The top electrode was adjusted so that it was close to, but not making contact with, the top surface of the insert membrane. Background resistance of the blank insert was about 5-20 ohms. […] TER values are a function of the surface area of the tissue. […] By this method of calculation, TER will be expressed as both Ohms*cm2 and percent original TER value. […] Several different lipid types (see Table 1) were screened to select for lipids that are capable of enhancing the permeation of a biological agent across an epithelial cell monolayer. […] A reduction in TER correlates with the ability to enhance the permeation of a molecule and biological agent across an epithelia.

[2] = tested on: human-derived tracheal/bronchial epithelial cells (EpiAirway Tissue Model); test: in vitro
Procedure: Normal, human-derived tracheal/bronchial epithelial cells will serve as the model cell system for assessing the lipids listed in Table 1. The cells are supplied by MatTek Corp. (Ashland, Mass.) as the EpiAirway™ Tissue Model. The cells are provided as a confluent monolayer on a Millipore Milicell-CM cell culture insert with a pore size of 0.4 μM, inner diameter of 0.8 cm and surface area of 0.6 cm^2 and comprised of transparent hydrophilic Teflon (PTFE). Upon receipt, the membranes are cultured in 1 ml basal media (phenol red-free and hydrocortisone-free Dulbecco's Modified Eagle's Media (DMEM) at 37° C./5% CO2 for 24-48 hours before use. Inserts are feed for each day of recovery.
The amount of cell death was assayed by measuring the loss of lactate dehydrogenase (LDH) from the cells using a CytoTox 96 Cytotoxicity Assay Kit (Promega Corp., Madison, Wis.). A treatment of 1% Octylphenolpoly(ethyleneglycolether)x (Triton X-100™) diluted in PBS was used as a lysis control. One percent Triton X-100™ mediated cell lysis was normalized to 100%. For basal-lateral LDH levels, triplicates of 50 μl of the basal media were loaded into a 96-well assay plate. For apical LDH levels, 150 μl of Epi-Cm was added to the apical side of each chamber and mixed by pipeting. One hundred and fifty microliters was then removed and diluted 2-fold prior to performing the LDH assay. All apical LDH assay were performed in triplicate and with 50 μl of the diluted test solution. Fresh, cell-free culture medium will be used as a blank. Total LDH levels were determined by lysing cells in a final concentration of 0.9% Triton-X100™. Fifty microliters of substrate solution was added to each well and the plates incubated for 30 minutes at room temperature in the dark. Following incubation, 50 μl of stop solution was added to each well and the plates read on an optical density plate reader at […]. Cytotoxicity was expressed as a percentage calculated by subtracting the average absorbance of the PBS control wells as the endogenously released LDH level and expressing that value relative to the average Triton-X100 control, which represents total LDH content. [formula] Osmolality
For the instant application, phosphate buffered saline (PBS) served as a negative control for both the TER assay and LDH (cytotoxicity) assay. […] TER measurements and LDH levels were taken immediately after a one hour treatment of the cultured cells with each lipid, unless specified otherwrise.
TER reduction was expressed as the percent decrease in TER value from time zero to one hour post-treatment. Thus, greater percent reduction in TER represents less electrical resistance across the epithelial cell monolayer and consequently greater epithelial cell permeation. Cytotoxicity (LDH levels) for each lipid was expressed as a percent of the LDH levels measured after Triton-X100 treatment of the cells. Triton-X100™ LDH levels were normalized to 100%.

[3] = tested on: human-derived tracheal/bronchial epithelial cells (EpiAirway Tissue Model); test: Cell viability (MTT assay); assay type: cell-based; details: compared with PBS negative control (Example 5)
Procedure: Cell viability will be assessed using the MTT assay (MTT-100, MatTek kit). This kit measures the uptake and transformation of tetrazolium salt to formazan dye. Thawed and diluted MTT concentrate is prepared 1 hour prior to the end of the dosing period with the lipid by mixing 2 mL of MTT concentrate with 8 mL of MTT diluent. Each cell culture insert is washed twice with PBS containing Ca^+2 and Mg^+2 and then transferred to a new 96-well transport plate containing 100 μL of the mixed MTT solution per well. This 96-well transport plate is then incubated for three hours at 37° C. and 5% CO2. After the three hour incubation, the MTT solution is removed and the cultures are transferred to a second 96-well feeder tray containing 250 μL MTT extractant solution per well. An additional 150 μL of MTT extractan solution was added to the surface of each culture well and the samples sat at room temperature in the dark for a minimum of two hours and maximum of 24 hours. The insert membrane was then pierced with a pipet tip and the solutions in the upper and lower wells were allowed to mix. Two hundred microliters of the mixed extracted solution along with extracted blanks (negative control) was transferred to a 96-well plate for measurement with a microplate reader. The optical density (OD) of the samples was measured at 570 nm with the background subtraction at 650 nm on a plate reader. Cell viability was expressed as a percentage and calculated by dividing the OD readings for treated inserts by the OD readings for the PBS treated inserts and multiplying by 100. For the purposes of this assay, it was assumed that PBS had no effect on cell viability and therefore represented 100% cell viability.

[4] = tested on: human-derived tracheal/bronchial epithelial cells (EpiAirway Tissue Model); test: FITC-Dextran permeation assay across epithelial cell monolayer; assay type: cell-based; details: for Mean % FD3 Permeation: FITC-dextran 3000 (Table 4); for permeation of FD3 relative to negative controls: text summary of Table 4
Procedure: Each tissue insert was placed in an individual well containing 1 ml of MatTek basal media. On the apical surface of the inserts, 20 μl of test formulation was applied according to study design, and the samples were placed on a shaker (˜100 rpm) for 1.5 hours at 37° C. FITC-labeled dextran solution was added to inserts apically and a fluorescence measurement was taken from the basolateral media after the incubation period. Two hundred microliters of the basal media for each test formulation was transferred to a dark-wall fluorescent reading plate. Each test formulation was tested in triplicate. Fluorescent intensity was measured at 470 nM with the microplate fluorescence reader FLx800 (Bio-Tek Instruments, Inc., Winooski, Vt.). A FITC labeled dextran with a molecular weight of 3 kDA, 10 kDA, 20 kDA, 40 kDA, 70 kDA and/or 500 kDA was used to assess the ability of individual lipids to deliver a model protein across an epithelia.
Permeation is expressed as percent permeation and was calculated as follows: [formula] [formula] Terms
PBS and 0.3% Triton-X100™ served as […]. […] FD permeation was presented as the percent of FD that crossed from the apical side of the epithelial cell monolayer to the basolateral cell surface.

[5] = lipid 1000 μM, lower value = greater TER reduction (Table 4)
[6] = lipid 1000 μM, percent decrease in TER from time zero

LDH levels ([2]; human, 1 h) | SMILES | Mean TER Reduction 1 hr. Post-treatment ([1]; lipid 500 μM) [%] | Cytotoxic Effect (LDH) 1 hr. Post-treatments ([2]; human, 1 h, 500 μM) [%] | MTT levels (cell viability) [3] | Mean % Relative Cytotoxic Effect (LDH) ([2]; lipid 1000 μM (Table 4)) [%] | Mean % FD3 Permeation ([4]; lipid 1000 μM) [%] | permeation of FD3 relative to negative controls [4] | activity at 1000 µM [1, 5] [%] | Mean % Relative Cytotoxic Effect (LDH) ([2]; human, 1 h, 1000 μM) [%] | Mean TER Reduction 1 hr. Post-treatment [1, 6] [%] | Cytotoxic Effect (LDH) 1 hr. Post-treatments ([2]; human, 1 h, 1000 μM) [%] | other results
below 30% | CCCCCCCCCCCCCCCC(=O)OC[C@H](COP(=O)([O-])OCC[N+](C)(C)C)OC(=O)CCCCCCCC(=O)O [16:0-09:0(COOH)PC, 1-Palmitoyl-2-Azelaoyl-sn-Glycero-3-Phosphocholine] | 92 | 9 | MTT levels comparable to that of the PBS negative control | – | – | – | – | – | – | – | % FITC-Dextran Permeation FD3 ([4]; lipid 500 μM (Table 5)): 3%
– | CCCCCCCCCCCCCCCCOC[C@H](COP(=O)(O)OCC[N+](C)(C)C)OC [2-O-Methyl-PAF, 1-O-Hexadecyl-2-O-Methyl-sn-Glycero-3-Phosphorylcholine] | – | – | – | 20 | 16 | enhanced the permeation of FD3 above that of the negative controls | – | – | – | – | Mean % of Original TER Value ([1]; lipid 500 μM (Table 4)): 8%; Mean % of Original TER Value [1, 5]: 2%; Mean % Relative Cytotoxic Effect (LDH) ([2]; lipid 500 μM (Table 4)): 18%; Mean % FD3 Permeation ([4]; lipid 500 μM): 7%
– | CCCCCCCCCCCCCCCCOC[C@H](CO)OC(C)=O [C16-02:0 DG, 1-O-Hexadecyl-2-Acetoyl-sn-Glycerol] | – | – | – | – | 0 | – | 98 | −3 | – | – | –
below 30% | CCCCCCCCCCCCCCCC(=O)OC[C@H](COP(=O)([O-])OCC[N+](C)(C)C)OC(=O)CCCCCCCC=O [16:0-09:0(ALDO)PC, 1-Palmitoyl-2-(9′-oxo-Nonanoyl)-sn-Glycero-3-Phosphocholine] | – | – | MTT levels comparable to that of the PBS negative control | – | – | – | – | – | 81 | 10 | % FITC-Dextran Permeation FD3 ([4]; lipid 1000 μM (Table 5)): 0%
– | CCCCCCCCCCCCCCCC(=O)OC[C@H](COP(=O)([O-])OCC[N+](C)(C)C)OC(C)=O [16:0-02:0 PC, 1-Palmitoyl-2-Acetoyl-sn-Glycero-3-Phosphocholine] | – | – | – | 23 | 8 | – | 25 | – | – | – | –
– | CCCCCCCCCCCCCCCCOC[C@@H](O)COP(=O)([O-])OCC[N+](C)(C)C [C16 Lyso-PAF, 1-O-Hexadecyl-2-Hydroxy-sn-Glycero-3-Phosphocholine] | – | – | – | 26 | 6 | enhanced the permeation of FD3 above that of the negative controls | 14 | – | – | – | % FITC-Dextran Permeation FD10 ([4]; lipid 1000 μM): 6%; % FITC-Dextran Permeation FD40 ([4]; lipid 1000 μM): 2%; % FITC-Dextran Permeation FD3 ([4]; lipid 1000 μM (Table 5)): 8%
below 30% | CCCCCCCCCCCCCCCCOC[C@H](COP(=O)([O-])OCC[N+](C)(C)C)OC(=O)CCCCCCCC(=O)O [Azelaoyl PAF (C16-09:0), 1-O-Hexadecyl-2-Azelaoyl-sn-Glycero-3-Phosphocholine] | 93 | 16 | MTT levels comparable to that of the PBS negative control | – | 9 | enhanced the permeation of FD3 above that of the negative controls | -5 | 3 | 95 | 26 | Mean TER Reduction 1 hr. Post-treatment ([1]; lipid 62.5 μM): 41%; Mean TER Reduction 1 hr. Post-treatment ([1]; lipid 125 μM): 76%; Mean TER Reduction 1 hr. Post-treatment ([1]; lipid 250 μM): 93%; Cytotoxic Effect (LDH) 1 hr. Post-treatments ([2]; human, 1 h, 62.5 μM): 2%; Cytotoxic Effect (LDH) 1 hr. Post-treatments ([2]; human, 1 h, 125 μM): 5%; Cytotoxic Effect (LDH) 1 hr. Post-treatments ([2]; human, 1 h, 250 μM): 10%; % FITC-Dextran Permeation FD3 ([4]; lipid 250 μM (Table 5)): 1%
– | CCCCCCCCCCCCCCCCOC[C@H](COP(=O)(O)OCC[N+](C)(C)C)OCC [2-O-Ethyl-PAF, 1-O-Hexadecyl-2-O-Ethyl-sn-Glycero-3-Phosphorylcholine] | – | – | – | 2 | 2 | enhanced the permeation of FD3 above that of the negative controls | – | – | – | – | Mean % of Original TER Value ([1]; lipid 500 μM (Table 4)): 112%; Mean % of Original TER Value [1, 5]: 70%; Mean % Relative Cytotoxic Effect (LDH) ([2]; lipid 500 μM (Table 4)): 1%; Mean % FD3 Permeation ([4]; lipid 500 μM): 1%
– | CCCCCCCCCCCCCCCCCCOC[C@H](COP(=O)([O-])OCC[N+](C)(C)C)OC [18:0-1:0 Diether PC, 1-O-Octadecyl-2-O-Methyl-sn-Glycero-3-Phosphocholine] | 89 | 26 | MTT levels comparable to that of the PBS negative control | – | 0 | – | 111 | −1 | 99 | 50 | % FITC-Dextran Permeation FD3 ([4]; lipid 500 μM (Table 5)): 5%
